Our source for the EC50 values is patent publication US10059667B2, “Antidiabetic compounds” (MERCK SHARP & DOHME CORP., priority 2014, dated 2018).

The EC50 is the midpoint of the concentration-response curve. Low readings indicate a more potent agent, high ones a less potent agent.

Sequence of Human GPR40 (O14842 whole entry): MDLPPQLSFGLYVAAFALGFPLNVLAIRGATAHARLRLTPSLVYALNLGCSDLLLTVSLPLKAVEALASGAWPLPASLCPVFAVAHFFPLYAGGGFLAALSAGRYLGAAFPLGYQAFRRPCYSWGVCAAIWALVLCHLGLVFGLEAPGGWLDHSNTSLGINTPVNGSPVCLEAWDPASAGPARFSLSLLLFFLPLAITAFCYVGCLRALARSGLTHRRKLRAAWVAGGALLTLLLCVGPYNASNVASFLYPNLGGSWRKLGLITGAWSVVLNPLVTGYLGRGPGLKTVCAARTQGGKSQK

The test concerns the target Human GPR40 (Homo sapiens (Human), UniProt O14842). The test is described as follows: Inositol Phosphate Turnover (IP1) Assay 1, HEK cells stably expressing human GPR40, 3H-inositol SPA. The class given is cell-based. The following applies: HEK cells stably expressing human GPR40, 96-well. The method, then:
Human and mouse GPR40 stable cell-lines were generated in CHO cells stably expressing NFAT BLA (Beta-lactamase). A human GPR40 stable cell-line was generated in HEK cells stably expressing the aequorin expressing reporter. The expression plasmids were transfected using lipofectamine (Life Technologies) following manufacturer's instructions. Stable cell-lines were generated following drug selection.
The assay was performed in 96-well format. HEK cells stably expressing human GPR40 were plated to be 60-80% confluent within 72 h. After 72 h, the plates were aspirated and the cells washed with inositol-free DMEM (ICN). The wash media was replaced with 150 μL of 3H-inositol labeling media (inositol-free media containing 0.4% human albumin or 0.4% mouse albumin, 1× pen/strep antibiotics, glutamine, 25 mM HEPES to which was added 3H-myo-inositol NEN #NET114A 1 mCi/mL, 25 Ci/mmol diluted 1:150 in loading media with a final specific radioactivity of 1 μCi/150 μL). Alternatively, the human and mouse albumin can be added after the overnight labeling step before the addition of LiCl.
The assay was typically run the next day after 18 h labeling. On the day of the assay, 5 μL of 300 mM LiCl was added to all wells and incubated at 37 degrees for 20 min. 0.75 μL of each compound was added and incubated with the cells for 60 min at 37 degrees. The media was then aspirated off and the assay terminated with the addition of 60 μL 10 mM formic acid. The cells were lysed for 60 min at room temperature. 15-30 μL of lysate was mixed with 70 μL/1 mg YSi SPA beads (Amersham) in clear bottom Isoplates. The plates were shaken for 2 h at room temperature. Beads were allowed to settle and the plates were counted in the Wallac Microbeta.
As to `COc1ccc(F)c(OC2CC(COc3cccc([C@H](C4CC4)[C@H](C)C(=O)O)c3)C2)c1` (stereo partly drawn) [Example 81, (2S,3R)-3-cyclopropyl-3-(3-((3-(2-fluoro-5-methoxyphenoxy)cyclobutyl)methoxy)phenyl)-2-methylpropanoic acid], the EC50 worked out at 45 nM. As for `C[C@H](C(=O)O)[C@H](c1cccc(OCC2CC(Oc3cc(F)ccc3F)C2)c1)C1CC1` (stereo partly shown) [Example 115], the figure is 110 nM; as for `COc1ccc([C@H]2C[C@@H]2COc2cccc([C@H](C3CC3)[C@H](C)C(=O)O)c2)c(F)c1` [Example 154], 544 nM; as for `CC(C)Oc1ccccc1OC1CC(COc2cccc([C@H](C3CC3)[C@H](C)C(=O)O)c2)C1` (single isomer, unassigned) [Example 127], 182 nM. The value for `C[C@H](C(=O)O)[C@H](c1cccc(OC[C@H]2C[C@@H]2c2cc(C(F)(F)F)ccc2F)c1)C1CC1` [Example 157] was 130 nM; that for `COc1cccc(F)c1OC1CC(COc2cccc([C@H](C3CC3)[C@H](C)C(=O)O)c2)C1` (single isomer, unassigned) [Example 130] was 139 nM; that for `COc1cccc(C2CC2COc2cccc([C@H](C3CC3)[C@H](C)C(=O)O)c2)c1` (stereo partly drawn) [Example 82, (2S,3R)-3-cyclopropyl-3-(3-((2-(3-methoxyphenyl)cyclopropyl)methoxy)phenyl)-2-methylpropanoic acid] was 172 nM. On to `COc1cccc(OC2CC(COc3cccc([C@H](C4CC4)[C@H](C)C(=O)O)c3)C2)c1` (single isomer, unassigned) [Example 66], for which the EC50 is 119 nM. For `COc1cc(C2CC(COc3cccc([C@H](C4CC4)[C@H](C)C(=O)O)c3)C2)ccn1` (single isomer, unassigned) [Example 89], it took 61 nM to reach a half-maximal effect (EC50). Turning to `Cc1c(OC2CC(COc3cccc([C@H](C4CC4)[C@H](C)C(=O)O)c3)C2)nn(C)c1C(F)(F)F` (stereo partly shown) [Example 100], the EC50 was 560 nM. Against the preceding molecule, the EC50 is about 9.2-fold higher. Molecule `COc1ccc(F)c(OC2CC(COc3cccc([C@H](C4CC4)[C@H](C)C(=O)O)c3)C2)c1` (stereo partly shown) [Example 73] gave an EC50 of 43 nM. The molecule `COc1cccc(F)c1OC1CC(COc2cccc([C@H](C3CC3)[C@H](C)C(=O)O)c2)C1` (single isomer, unassigned) [Example 129] registered an EC50 of 109 nM. The value for `Cc1ccc(F)c(OC2CC(COc3cccc([C@H](C4CC4)[C@H](C)C(=O)O)c3)C2)c1` (single isomer, unassigned) [Example 118] was 156 nM.

Take `COc1ccc(F)c(OC2CC(COc3cccc([C@H](C4CC4)[C@H](C)C(=O)O)c3)C2)c1` (single isomer, unassigned) [Example 80]: the midpoint of the response, the EC50, lay at 12 nM. For `C[C@H](C(=O)O)[C@H](c1cccc(OCC2CC2Cc2ccccc2)c1)C1CC1` (stereo partly shown) [Example 67], the midpoint of the response, the EC50, lay at 408 nM. This EC50 is about 34-fold higher than that of the molecule before. For `C[C@H](C(=O)O)[C@H](c1cccc(OCC2CC(Oc3cccc(O)c3)C2)c1)C1CC1` (single isomer, unassigned) [Example 123], the response was half-maximal at 324 nM (EC50).

`COc1ccc(F)c([C@H]2C[C@@H]2COc2cccc([C@H](C3CC3)[C@H](C)C(=O)O)c2)c1F` [Example 142] registered an EC50 of 78 nM. For `CC(c1cc(C(F)(F)F)ccc1C(F)(F)F)N1CCC(COc2cccc([C@H](C3CC3)[C@H](C)C(=O)O)c2)CC1` (stereo partly shown) [Example 35], the EC50 was 20 nM. Molecule `CC(C)Oc1ccccc1OC1CC(COc2cccc([C@H](C3CC3)[C@H](C)C(=O)O)c2)C1` (single isomer, unassigned) [Example 126] yielded an EC50 of 147 nM.

Consider `CCOc1cccc(OC2CC(COc3cccc([C@H](C4CC4)[C@H](C)C(=O)O)c3)C2)c1` (stereo partly shown) [Example 131], for which the EC50 stood at 119 nM. Regarding `COc1ccc(F)c([C@H]2C[C@@H]2COc2cccc([C@H](C3CC3)[C@H](C)C(=O)O)c2)c1` [Example 74], the EC50 was 56 nM. As for `C[C@H](C(=O)O)[C@H](c1cccc(OCC2CC(Oc3ccc(OC(F)F)nc3)C2)c1)C1CC1` (stereo partly shown) [Example 95], the figure is 1390 nM.
